The values that follow come from patent US7582627B2, “3-aminoquinazolin-2,4-dione antibacterial agents” (Warner-Lambert Company, priority 2000, dated 2009).

Molecules are shown by their SMILES. Where only a bound is given, the exact number is not on record here.

The melting point is the temperature of the solid-liquid transition. As for `COc1c(N2CCC(C(=O)O)C2)c(F)cc2c(=O)n(N)c(=O)n(C3CC3)c12.O=C(O)C(F)(F)F` (stereo not shown), the melting point was 252 °C (dec.).
`Cc1c(N2CCC(C(=O)O)C2)c(F)cc2c(=O)n(N)c(=O)n(C3CC3)c12.O=C(O)C(F)(F)F` (stereo not shown): the melting point is 226 °C (dec.).
Take `COc1c(N2CC3CC3(CN)C2)c(F)cc2c(=O)n(N)c(=O)n(C3CC3)c12.Cl` (stereo not shown): the melting point fell in the range of 183 to 185 °C.
To `Cc1c(N2CC3CCCNC3C2)c(F)cc2c(=O)n(N)c(=O)n(C3CC3)c12.Cl` (stereo not shown) belongs 220 °C.
As to `COc1c(N2CCCC(CN)C2)c(F)cc2c(=O)n(N)c(=O)n(C3CC3)c12.Cl` (stereo not shown), the melting point was determined as 201 °C.
Next, `COc1c(N2CC(C)C(C(C)N)C2)c(F)cc2c(=O)n(N)c(=O)n(C3CC3)c12.Cl` (stereo not shown): 204.5 °C; `Cl.Nn1c(=O)c2cc(F)c(N3CCC(N)(c4ccccc4)C3)c(Cl)c2n(C2CC2)c1=O` (stereo not shown): 198 to 200 °C.
For `Cc1c(N2CCC(C)(N)C2)c(F)cc2c(=O)n(N)c(=O)n(C3CC3)c12.Cl` (stereo not shown), the melting point is 237 to 240 °C.
Regarding `Cc1c(N2CCCC2)c(F)cc2c(=O)n(N)c(=O)n(C3CC3)c12.Cl`, the melting point is 178 to 180 °C.
Next, `COc1c(N2CCCC2)c(F)cc2c(=O)n(N)c(=O)n(C3CC3)c12.Cl`: 92 to 94 °C; `Cc1c(N2CCC(C(C)(C)O)C2)c(F)cc2c(=O)n(N)c(=O)n(C3CC3)c12.Cl` (stereo not shown): 116 to 120 °C.
For the compound `COc1c(N2CCC(C(C)(C)O)C2)c(F)cc2c(=O)n(N)c(=O)n(C3CC3)c12.Cl` (stereo not shown), the melting point is 134 °C (dec.).
Take `CN[C@@H](C)[C@@H]1CCN(c2cc3c(c(C)c2F)c(=O)n(N)c(=O)n3C2CC2)C1.Cl`: the melting point was 182 to 185 °C.
Next, `CCN[C@@H](C)[C@@H]1CCN(c2c(F)cc3c(=O)n(N)c(=O)n(C4CC4)c3c2C)C1.Cl`: 210 to 215 °C; `COc1c(N2CC3C(N)CC3(C)C2)c(F)cc2c(=O)n(N)c(=O)n(C3CC3)c12.Cl` (stereo not shown): over 190 °C; `COc1c(N2CCC(CN)CC2)c(F)cc2c(=O)n(N)c(=O)n(C3CC3)c12.Cl`: 201 °C.
Compound `COc1c(N2CCC3(CC3N)C2)c(F)cc2c(=O)n(N)c(=O)n(C3CC3)c12.Cl` (stereo not shown) showed a melting point of over 250 °C.
Regarding `COc1c(N2CC3CCCCC3(CN)C2)c(F)cc2c(=O)n(N)c(=O)n(C3CC3)c12.Cl` (stereo not shown), the melting point was over 250 °C.
To `Cc1c(N2CC3CCCCC3(CN)C2)c(F)cc2c(=O)n(N)c(=O)n(C3CC3)c12.Cl` (stereo not shown) belongs over 250 °C; to `Cc1c(N2CC3C(N)C3C2)c(F)cc2c(=O)n(N)c(=O)n(C3CC3)c12.Cl` (stereo not shown), 180 to 182 °C.
To `Cl.NCCC1CCN(c2c(F)cc3c(=O)n(N)c(=O)n(C4CC4)c3c2Cl)C1` (stereo not shown) belongs 158 to 160 °C; to `CC(C)(N)[C@@H]1CCN(c2c(F)cc3c(=O)n(N)c(=O)n(C4CC4)c3c2Cl)C1.Cl`, 117 to 120 °C.
To `Cl.NCC1CCN(c2cc3c(cc2F)c(=O)n(N)c(=O)n3C2CC2)C1` (stereo not shown) belongs 170 to 172 °C; to `Cl.Nn1c(=O)c2cc(F)c(N3CCCC3)c(Cl)c2n(C2CC2)c1=O`, 96 to 98 °C.
In turn, `COc1c(N2CCC(N)C2)c(F)cc2c(=O)n(N)c(=O)n(C3CC3)c12.Cl` (stereo not shown) showed a melting point of 216 to 218 °C.
For the compound `NC1CCN(c2ccc3c(=O)n(N)c(=O)n(C4CC4)c3c2F)C1.O=C(O)C(F)(F)F` (stereo not shown), the melting point lay in the range of 210 to 212 °C.
To `NC1CCN(c2c(Cl)cc3c(=O)n(N)c(=O)n(C4CC4)c3c2F)C1.O=C(O)C(F)(F)F` (stereo not shown) belongs 135 to 137 °C; to `CCn1c(=O)n(N)c(=O)c2ccc(N3CC[C@H](N)C3)c(F)c21.Cl`, 248 to 251 °C; to `CCn1c(=O)n(N)c(=O)c2cc(F)c(N3CC[C@@H](C(C)(C)N)C3)cc21.Cl`, over 250 °C.
Take `Cl.N[C@H]1CCN(c2cc3c(cc2F)c(=O)n(N)c(=O)n3C2CC2)C1`: the melting point is over 250 °C.
To `Cc1c(N2CCC(N)C2)c(F)cc2c(=O)n(N)c(=O)n(C3CC3)c12.O=C(O)C(F)(F)F` (stereo not shown) belongs 110 to 112 °C.
Next, `Cc1c(N2CCC(CN)C2)c(F)cc2c(=O)n(N)c(=O)n(C3CC3)c12.O=C(O)C(F)(F)F` (stereo not shown): 82 to 84 °C; `COc1cc2c(=O)n(N)c(=O)n(C3CC3)c2c(F)c1N1CCC(N)C1.Cl` (stereo not shown): 208 to 210 °C.
Take `COc1c(N2CCC(CN)C2)c(F)cc2c(=O)n(N)c(=O)n(C3CC3)c12.Cl` (stereo not shown): the melting point is 180 to 182 °C.
`COc1c(N2CC[C@H]([C@H](C)N)C2)c(F)cc2c(=O)n(N)c(=O)n(C3CC3)c12.Cl`: the melting point lay in the range of 221 to 223 °C.
Regarding `Cc1c(N2CC[C@H]([C@H](C)N)C2)c(F)cc2c(=O)n(N)c(=O)n(C3CC3)c12.Cl`, the melting point was 192 to 194 °C.
To `CC1COc2c(N3CC[C@H](N)C3)c(F)cc3c(=O)n(N)c(=O)n1c23.Cl` (stereo partly shown) belongs 202 to 204 °C.
Consider `CC1COc2c(N3CC[C@@H]([C@H](C)N)C3)c(F)cc3c(=O)n(N)c(=O)n1c23.Cl` (stereo partly shown), for which the melting point fell in the range of 192 to 194 °C.
Next, `CC1CCc2c(N3CC[C@@H]([C@H](C)N)C3)c(F)cc3c(=O)n(N)c(=O)n1c23.Cl` (stereo partly shown): 197 to 199 °C; `Cl.N[C@H]1CCN(c2nc3c(cc2F)c(=O)n(N)c(=O)n3C2CC2)C1`: 213 to 215 °C.
Compound `Cl.NC1C2CN(c3nc4c(cc3F)c(=O)n(N)c(=O)n4C3CC3)CC12` (stereo not shown) had a melting point of 268 to 270 °C.
For the compound `Cl.Nn1c(=O)c2cc(F)c(N3CC4CCNCC4C3)nc2n(C2CC2)c1=O` (stereo not shown), the melting point lay within 200 to 203 °C.
Next, `Cl.Nn1c(=O)c2cc(F)c(C3CCC4CNCC4N3)nc2n(C2CC2)c1=O` (stereo not shown): 200 to 202 °C.
To `CC(C)(N)[C@@H]1CCN(c2nc3c(cc2F)c(=O)n(N)c(=O)n3C2CC2)C1.Cl` belongs over 260 °C; to `Cl.Cl.NCC1CCCN(c2nc3c(cc2F)c(=O)n(N)c(=O)n3C2CC2)C1` (stereo not shown), 152 to 154 °C; to `CN[C@H](C)[C@@H]1CCN(c2nc3c(cc2F)c(=O)n(N)c(=O)n3C2CC2)C1.Cl`, 137 to 139 °C.
Turning to `C[C@H](N)[C@@H]1CCN(c2nc3c(cc2F)c(=O)n(N)c(=O)n3C2CC2)C1.Cl`, the melting point is over 260 °C.
In turn, `Cc1c(N2CC(C(C)N)C3(CC3)C2)c(F)cc2c(=O)n(N)c(=O)n(C3CC3)c12.Cl` (stereo not shown) registered a melting point of 178 to 180 °C.
To `Cl.Nn1c(=O)c2cc(F)c(N3CCC(CNCC(F)(F)F)C3)c(Cl)c2n(C2CC2)c1=O` (stereo not shown) belongs 163 to 164 °C.
`Cl.NCC1(Cc2ccccc2)CCN(c2c(F)cc3c(=O)n(N)c(=O)n(C4CC4)c3c2Cl)C1` (stereo not shown) gave a melting point of 148 to 150 °C.
As for `C[C@H](N)[C@@H]1CCN(c2c(F)cc3c(=O)n(N)c(=O)n(C4CC4)c3c2Cl)C1.Cl`, the melting point lay within 164 to 166 °C.
To `CS(=O)(=O)NCC1CCN(c2c(F)cc3c(=O)n(N)c(=O)n(C4CC4)c3c2Cl)C1.Cl` (stereo not shown) belongs 109 to 112 °C; to `Cl.NCC1CCCN(c2c(F)cc3c(=O)n(N)c(=O)n(C4CC4)c3c2Cl)C1` (stereo not shown), 131 to 133 °C.
Next, `CC(C)NCC1CCN(c2c(F)cc3c(=O)n(N)c(=O)n(C4CC4)c3c2Cl)C1.Cl` (stereo not shown): 125 to 127 °C; `Cl.NCC1CCN(c2c(Cl)cc3c(=O)n(N)c(=O)n(C4CC4)c3c2Cl)C1` (stereo not shown): 147 to 149 °C.
Next, `Cc1c(N2CC[C@@H](C(C)(C)N)C2)c(F)cc2c(=O)n(N)c(=O)n(C3CC3)c12.Cl`: 200 to 202 °C.
`COC1(C(C)N)CCN(c2c(F)cc3c(=O)n(N)c(=O)n(C4CC4)c3c2C)C1.Cl` (stereo not shown) came in with a melting point of 190 to 192 °C.
The compound `COc1c(N2CCC(F)(C(C)N)C2)c(F)cc2c(=O)n(N)c(=O)n(C3CC3)c12.Cl` (stereo not shown) came in with a melting point of 190 to 192 °C.
To `Cc1c(F)c(N2CCC(N)C2)cc2c1c(=O)n(N)c(=O)n2C1CC1.Cl` (stereo not shown) belongs 238 to 240 °C; to `Cc1c(F)c(N2CC[C@H]([C@@H](C)N)C2)cc2c1c(=O)n(N)c(=O)n2C1CC1.Cl`, 245 to 247 °C.
`COCC1(CN)CCN(c2c(F)cc3c(=O)n(N)c(=O)n(C4CC4)c3c2C)C1.Cl` (stereo not shown) registered a melting point of 172 to 177 °C.
`COc1c(N2CCCC(C(C)N)C2)c(F)cc2c(=O)n(N)c(=O)n(C3CC3)c12.Cl` (stereo not shown) had a melting point of 198 °C.
Turning to `Cc1c(N2CCCC(CCN)C2)c(F)cc2c(=O)n(N)c(=O)n(C3CC3)c12.Cl` (stereo not shown), the melting point was 200 °C.
The compound `COc1c(N2CC(C(C)N)C(C)(C)C2)c(F)cc2c(=O)n(N)c(=O)n(C3CC3)c12.Cl` (stereo not shown) showed a melting point of 230 °C.
To `Cc1c(N2CC(C(C)N)C(C)(C)C2)c(F)cc2c(=O)n(N)c(=O)n(C3CC3)c12.Cl` (stereo not shown) belongs 246 °C.
Compound `Cc1c(N2CCC(N)(c3ccccc3)C2)c(F)cc2c(=O)n(N)c(=O)n(C3CC3)c12.Cl` (stereo not shown) displayed a melting point of 236 °C.
In turn, `Cc1c(N2CC(C)C(C(C)N)C2)c(F)cc2c(=O)n(N)c(=O)n(C3CC3)c12.Cl` (stereo not shown) yielded a melting point of 240 °C.
`Cc1c(N2CCC(CN)(c3ccccc3)C2)c(F)cc2c(=O)n(N)c(=O)n(C3CC3)c12.Cl` (stereo not shown) displayed a melting point of 227 to 231 °C.
With `Cc1c(N2CC(CN)C3(CC3)C2)c(F)cc2c(=O)n(N)c(=O)n(C3CC3)c12.Cl` (stereo not shown), the melting point stood at 167 °C.
Regarding `COc1c(N2CC(CN)C3(CC3)C2)c(F)cc2c(=O)n(N)c(=O)n(C3CC3)c12.Cl` (stereo not shown), the melting point came to 178 °C.
Next, `COc1c(N2CCC(O)(CN)C2)c(F)cc2c(=O)n(N)c(=O)n(C3CC3)c12.Cl` (stereo not shown): 202 °C; `Cc1c(N2CCCC(CN)C2)c(F)cc2c(=O)n(N)c(=O)n(C3CC3)c12.Cl` (stereo not shown): 219 to 221 °C; `COC1CN(c2c(F)cc3c(=O)n(N)c(=O)n(C4CC4)c3c2C)CC1N.Cl` (stereo not shown): over 250 °C.
`COc1c(N2CC(N)C(OC)C2)c(F)cc2c(=O)n(N)c(=O)n(C3CC3)c12.Cl` (stereo not shown): the melting point is over 250 °C.
Turning to `COc1c(N2CC(N)C(F)C2)c(F)cc2c(=O)n(N)c(=O)n(C3CC3)c12.Cl` (stereo not shown), the melting point was over 250 °C.
To `Cc1c(N2CCC(C)(CN)C2)c(F)cc2c(=O)n(N)c(=O)n(C3CC3)c12.Cl` (stereo not shown) belongs 210 °C.
